The test concerns BDF1 mice, B16 melanoma ip, median survival T/C. Put plainly: NCI In Vivo Anticancer Drug Screen. Data for tumor model B16 Melanoma (intraperitoneal) in B6D2F1 (BDF1) mice. The settings on record: endpoint: median survival time, higher = longer survival. The method, boiled down:
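Transplantable tumor model; survival or tumor size measured; reported as T/C, treated over vehicle control.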

Where [1] appears, read: dose: 100.0 mg/kg/injection, schedule: Q01DX009 (ip), vehicle: saline with Tween-80.
[2] abbreviates: dose: 200.0 mg/kg/injection, schedule: Q01DX009 (ip), vehicle: saline with Tween-80.
The mark [3] stands for this setting: dose: 400.0 mg/kg/injection, schedule: Q01DX009 (ip), vehicle: saline with Tween-80.
The mark [4] stands for this setting: dose: 12.5 mg/kg/injection, schedule: Q01DX009 (ip), vehicle: saline with Tween-80.
[5] abbreviates: dose: 25.0 mg/kg/injection, schedule: Q01DX009 (ip), vehicle: saline with Tween-80.
Where [6] appears, read: dose: 50.0 mg/kg/injection, schedule: Q01DX009 (ip), vehicle: saline with Tween-80.
Where [7] appears, read: dose: 200.0 mg/kg/injection, schedule: Q01DX009 (ip), vehicle: Klucel (hydroxypropylcellulose) (HPC).
Where [8] appears, read: dose: 400.0 mg/kg/injection, schedule: Q01DX009 (ip), vehicle: Klucel (hydroxypropylcellulose) (HPC).
The mark [9] stands for this setting: dose: 100.0 mg/kg/injection, schedule: Q01DX009 (ip), vehicle: Klucel (hydroxypropylcellulose) (HPC).

Several values for one entry are separate records, joined by “and”; a condition that tells them apart may be missing. Equal values may be shown once. Inconclusive results and toxic doses are left out.

On to `CC(N)C(=O)NC(CO)C(=O)O` (stereo not drawn), for which the T/C by setting is: under setting [1], 109 % of control; under setting [2], 97 % of control; under setting [3], 97 % of control.
For the compound `O=S(=O)(c1ccccc1)N1CN2CCN(C2)C1`, the T/C is 89 % of control under setting [4]; 98 % of control under setting [5]; 99 % of control under setting [6]; 100 % of control under setting [1]; 103 % of control under setting [2].
On to `O=C1c2c(O)ccc(O)c2C(=O)c2c(NCCNCCO)ccc(NCCNCCO)c21`, for which the T/C (dose: 0.13 mg/kg/injection, schedule: Q01DX009 (ip), vehicle: saline with Tween-80) is 110 % of control; the T/C (dose: 0.25 mg/kg/injection, schedule: Q01DX009 (ip), vehicle: saline) is 186 % of control and 188 % of control; the T/C (dose: 0.25 mg/kg/injection, schedule: Q01DX009 (ip), vehicle: water) is 157 % of control and 160 % of control and 174 % of control; the T/C (dose: 0.25 mg/kg/injection, schedule: Q01DX009 (oral), vehicle: acid diluted with saline) is 98 % of control; the T/C (dose: 0.5 mg/kg/injection, schedule: Q01DX009 (ip), vehicle: saline) was 218 % of control; the T/C (dose: 0.5 mg/kg/injection, schedule: Q01DX009 (ip), vehicle: water) was 218 % of control and 225 % of control and 247 % of control. Also, the T/C is 104 % of control (dose: 0.5 mg/kg/injection, schedule: Q01DX009 (oral), vehicle: acid diluted with saline); 152 % of control and 156 % of control (dose: 1.0 mg/kg/injection, schedule: Q01DX009 (ip), vehicle: saline with Tween-80); 260 % of control and 267 % of control (dose: 1.0 mg/kg/injection, schedule: Q01DX009 (ip), vehicle: saline); 121 % of control and 202 % of control and 261 % of control (dose: 1.0 mg/kg/injection, schedule: Q01DX009 (ip), vehicle: water); 153 % of control (dose: 1.25 mg/kg/injection, schedule: Q01DX001 (ip), vehicle: acid diluted with saline); 212 % of control (dose: 2.0 mg/kg/injection, schedule: Q01DX001 (ip), vehicle: water). The T/C was 207 % of control and 251 % of control (dose: 2.0 mg/kg/injection, schedule: Q01DX009 (ip), vehicle: saline); 221 % of control (dose: 2.0 mg/kg/injection, schedule: Q01DX009 (ip), vehicle: water); 123 % of control and 205 % of control (dose: 2.5 mg/kg/injection, schedule: Q01DX001 (ip), vehicle: acid diluted with saline); 202 % of control (dose: 4.0 mg/kg/injection, schedule: Q01DX001 (ip), vehicle: water); 303 % of control (dose: 8.0 mg/kg/injection, schedule: Q01DX001 (ip), vehicle: water).
Turning to `OCC1OC(n2cnc3c(NO)ncnc32)C(O)C1O` (stereo not drawn), the T/C under setting [7] is 109 % of control and the T/C under setting [8] was 111 % of control.
Take `Nc1cccc2c1nc(NCCO)c1ccccc12`: the T/C was 94 % of control under setting [6], 102 % of control under setting [1], 94 % of control under setting [2] and 102 % of control under setting [3].
In the case of `CCCCc1c(OC)cc(O)c2c1C(=O)c1[nH]c(C(=O)O)c(O)c(=O)c1C2=O`, the T/C reads like this: (dose: 7.5 mg/kg/injection, schedule: Q01DX009 (ip), vehicle: Klucel (hydroxypropylcellulose) (HPC)) 96 % of control; (dose: 15.0 mg/kg/injection, schedule: Q01DX009 (ip), vehicle: Klucel (hydroxypropylcellulose) (HPC)) 96 % of control.
Consider `CCN(C)c1cc2c3c(c1)CCCN3CCC2`, for which the T/C reads like this: (dose: 0.63 mg/kg/injection, schedule: Q01DX009 (ip), vehicle: saline) 111 % of control; (dose: 1.25 mg/kg/injection, schedule: Q01DX009 (ip), vehicle: saline) 95 % of control; (dose: 2.5 mg/kg/injection, schedule: Q01DX009 (ip), vehicle: saline) 101 % of control; (dose: 5.0 mg/kg/injection, schedule: Q01DX009 (ip), vehicle: saline) 93 % of control.
As for `O=C(Nc1cccc(C(F)(F)F)c1)c1ccc(C(=O)Nc2cccc(C(F)(F)F)c2)cc1`, the T/C was 205 % of control under setting [5], 184 % of control under setting [6] and 90 % of control under setting [1].
Consider `O=C(O)CC(NC(=O)CP(=O)(O)O)C(=O)O.[NH-]C1CCCCC1[NH-].[Pt+2]` (stereo not drawn), for which the T/C was 122 % of control (dose: 0.4 mg/kg/injection, schedule: Q01DX009 (ip), vehicle: dextrose); 154 % of control (dose: 0.78 mg/kg/injection, schedule: Q01DX009 (ip), vehicle: dextrose); 165 % of control (dose: 1.56 mg/kg/injection, schedule: Q01DX009 (ip), vehicle: dextrose); 123 % of control (dose: 3.0 mg/kg/injection, schedule: Q01DX009 (ip), vehicle: dextrose); 163 % of control (dose: 3.2 mg/kg/injection, schedule: Q01DX009 (ip), vehicle: dextrose).
`CN(C)CCCCO`: the T/C was 96 % of control (dose: 50.0 mg/kg/injection, schedule: Q01DX009 (ip), vehicle: saline); 96 % of control (dose: 100.0 mg/kg/injection, schedule: Q01DX009 (ip), vehicle: saline); 89 % of control (dose: 200.0 mg/kg/injection, schedule: Q01DX009 (ip), vehicle: saline).
Consider `O=C(NCCCCC(NC(=O)c1ccccc1)C(=O)O)OCc1ccccc1` (stereo not drawn), for which the T/C is 101 % of control under setting [6], 96 % of control under setting [1], 95 % of control under setting [2] and 86 % of control under setting [3].
In the case of `O=c1oc2c(CN3CCCCC3)c(O)ccc2c2c1CCCC2`, the T/C (dose: 64.0 mg/kg/injection, schedule: Q01DX009 (ip), vehicle: Klucel (hydroxypropylcellulose) (HPC)) is 112 % of control; the T/C (dose: 128.0 mg/kg/injection, schedule: Q01DX009 (ip), vehicle: Klucel (hydroxypropylcellulose) (HPC)) was 98 % of control; the T/C (dose: 256.0 mg/kg/injection, schedule: Q01DX009 (ip), vehicle: Klucel (hydroxypropylcellulose) (HPC)) was 106 % of control; the T/C (dose: 512.0 mg/kg/injection, schedule: Q01DX009 (ip), vehicle: Klucel (hydroxypropylcellulose) (HPC)) was 93 % of control.
For `O=C(OCOC(=O)c1ccccc1)c1ccccc1`, the T/C under setting [9] is 120 % of control, the T/C under setting [7] was 106 % of control and the T/C under setting [8] was 114 % of control.
`FC(F)(F)c1ccc2c(c1)N(CCCN1CCN(CCOCCCl)CC1)c1ccccc1S2`: the T/C was 123 % of control (dose: 0.39 mg/kg/injection, schedule: Q01DX009 (ip), vehicle: saline); 115 % of control (dose: 0.78 mg/kg/injection, schedule: Q01DX009 (ip), vehicle: saline); 110 % of control (dose: 1.56 mg/kg/injection, schedule: Q01DX009 (ip), vehicle: saline); 92 % of control (dose: 2.34 mg/kg/injection, schedule: Q04DX003 (ip), vehicle: saline); 86 % of control (dose: 4.68 mg/kg/injection, schedule: Q04DX003 (ip), vehicle: saline).
As for `O=C1NC(Cc2ccc(N(CCCl)CCCl)cc2)C(=O)O1` (stereo not drawn), the T/C was 94 % of control (dose: 0.1 mg/kg/injection, schedule: Q01DX009 (ip), vehicle: saline with Tween-80); 102 % of control (dose: 0.2 mg/kg/injection, schedule: Q01DX009 (ip), vehicle: saline with Tween-80); 105 % of control (dose: 0.4 mg/kg/injection, schedule: Q01DX009 (ip), vehicle: saline with Tween-80); 157 % of control (dose: 3.0 mg/kg/injection, schedule: Q01DX009 (ip), vehicle: saline with Tween-80); 197 % of control (dose: 3.13 mg/kg/injection, schedule: Q01DX009 (ip), vehicle: saline with Tween-80); 203 % of control (dose: 6.0 mg/kg/injection, schedule: Q01DX009 (ip), vehicle: saline with Tween-80). In addition, under setting [4], the T/C was 155 % of control.
With `Cc1cc([N+](=O)[O-])c(N)c([N+](=O)[O-])c1`, the T/C by setting is: under setting [9], 100 % of control; under setting [7], 93 % of control; under setting [8], 100 % of control.
Turning to `CCOC(=O)N1C(=O)c2ccccc2C1=O`, the T/C reads like this: under setting [5], 94 % of control; under setting [6], 94 % of control; under setting [1], 86 % of control.
For the compound `COc1ccc(CSCC(NC(=O)OC(C)(C)C)C(=O)O)cc1` (stereo not drawn), the T/C under setting [9] was 110 % of control, the T/C under setting [7] is 97 % of control and the T/C under setting [8] is 95 % of control.
For `O=C(Nc1ccc(C(=O)Nc2cc(S(=O)(=O)O)cc3cccc(S(=O)(=O)O)c23)cc1)Nc1ccc(C(=O)Nc2cc(S(=O)(=O)O)cc3cccc(S(=O)(=O)O)c23)cc1`, the T/C was 108 % of control (dose: 50.0 mg/kg/injection, schedule: Q01DX009 (ip), vehicle: Klucel (hydroxypropylcellulose) (HPC)); 113 % of control under setting [9]; 100 % of control under setting [7].

Source of the values: PubChem BioAssay AID192 (DTP/NCI, 2004).
